Measured values taken from PubChem BioAssay AID206 (DTP/NCI, 2004).
Values joined by “and” are separate entries in the source; they are usually repeats but may differ in a detail not shown here. Equal values may be shown once. Results filed as inconclusive are left out. Starred links: 1 amine or outer side, 2 acyl side, 3 side chain; linkers in the order of their positions; H or OH if unused. Positions of bridges follow the written chain, without caps; N, C: chain ends. Non-standard residues stand in square brackets, D forms with d. Residues, ends and D or L forms follow the SMILES beside them. Chains are numbered I, II in the order given. Actinocin(1to9) = Cc1c2oc3c(C)ccc(C(=O)[*:2])c3nc-2c(C(=O)[*:1])c(N)c1=O; NMeV = CN[CH](C(=O)O)C(C)C; Aze = O=C(O)[CH]1CCN1; Sar = CNCC(=O)O

Test system: nude mice, HT29 intrarenal xenograft, tumor weight T/C
Experiment: NCI In Vivo Anticancer Drug Screen. Data for tumor model HT29;CX-1 Human Adenocarcinoma (MER+) (intrarenal inoculation) in NU/NU Swiss (nude) mice
Details: endpoint: mean tumor weight change, higher = larger tumour
How it was run: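 T/C = treated-group value ÷ vehicle-group value, using tumor size or survival.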

[1] = dose: 50.0 mg/kg/injection, schedule: Q04DX004 (sc), vehicle: saline with Tween-80
[2] = dose: 100.0 mg/kg/injection, schedule: Q04DX004 (sc), vehicle: saline with Tween-80
[3] = dose: 150.0 mg/kg/injection, schedule: Q04DX004 (sc), vehicle: saline with Tween-80
[4] = dose: 300.0 mg/kg/injection, schedule: Q04DX004 (sc), vehicle: saline with Tween-80
[5] = dose: 600.0 mg/kg/injection, schedule: Q04DX004 (sc), vehicle: saline with Tween-80
[6] = dose: 1200.0 mg/kg/injection, schedule: Q04DX004 (sc), vehicle: saline with Tween-80
[7] = dose: 75.0 mg/kg/injection, schedule: Q04DX004 (sc), vehicle: saline with Tween-80
[8] = dose: 50.0 mg/kg/injection, schedule: Q01DX010 (sc), vehicle: saline with Tween-80
[9] = dose: 100.0 mg/kg/injection, schedule: Q01DX010 (sc), vehicle: saline with Tween-80
[10] = dose: 75.0 mg/kg/injection, schedule: Q04DX004 (sc), vehicle: Klucel (hydroxypropylcellulose) (HPC)
[11] = dose: 150.0 mg/kg/injection, schedule: Q04DX004 (sc), vehicle: water
[12] = dose: 300.0 mg/kg/injection, schedule: Q04DX004 (sc), vehicle: water

Cc1c2oc3c(C)ccc(C(=O)NC4C(=O)NC(C(C)C)C(=O)N5CCCC5C(=O)N(C)CC(=O)N(C)C(C(C)C)C(=O)OC4C)c3nc-2c(C(=O)NC2C(=O)NC(C(C)C)C(=O)N3CCC3C(=O)N(C)CC(=O)N(C)C(C(C)C)C(=O)OC2C)c(N)c1=O (stereo not drawn) (I: TV[Aze][Sar][NMeV] / II: TVP[Sar][NMeV]; ester I:1-I:C, II:1-II:C; linker I:N-II:N via Actinocin(1to9); configuration not given here)
T/C (dose: 0.5 mg/kg/injection, schedule: Q04DX004 (sc), vehicle: saline + alcohol): 59 % of control | T/C (dose: 1.0 mg/kg/injection, schedule: Q04DX004 (sc), vehicle: saline + alcohol): 30 % of control

C[C@H](N)C(=O)N[C@@H]1[C@H]2C(=C(O)C[C@@H](O)[C@@H]2O)C(=O)O[C@@H]1C
T/C (dose: 300.0 mg/kg/injection, schedule: Q04DX004 (sc), vehicle: saline): 107 % of control | T/C (dose: 600.0 mg/kg/injection, schedule: Q04DX004 (sc), vehicle: saline): 81 % of control | T/C (dose: 1200.0 mg/kg/injection, schedule: Q04DX004 (sc), vehicle: saline): 68 % of control | T/C (dose: 2400.0 mg/kg/injection, schedule: Q04DX004 (sc), vehicle: saline): 92 % of control

CC[C@]1(O)C[C@H]2CN(CCc3c([nH]c4ccccc34)[C@@](C(=O)OC)(c3cc4c(cc3OC)N(C=O)[C@H]3[C@@](O)(C(=O)OC)[C@H](OC(C)=O)[C@]5(CC)C=CCN6CC[C@]43[C@@H]65)C2)C1
T/C (dose: 0.13 mg/kg/injection, schedule: Q01DX010 (sc), vehicle: saline): 86 % of control | T/C (dose: 0.25 mg/kg/injection, schedule: Q01DX010 (sc), vehicle: saline): 84 % of control

O=S(=O)(CCl)OCCCl
T/C [1]: 163 % of control | T/C [2]: 105 % of control

O=C1CN(CN2CCOCC2)C(=O)CN1CN1CCOCC1
T/C (dose: 25.0 mg/kg/injection, schedule: Q01DX010 (sc), vehicle: suspension in saline): 53 % of control | T/C (dose: 50.0 mg/kg/injection, schedule: Q01DX010 (sc), vehicle: suspension in saline): 122 % of control | T/C (dose: 100.0 mg/kg/injection, schedule: Q01DX010 (sc), vehicle: suspension in saline): 114 % of control | T/C (dose: 200.0 mg/kg/injection, schedule: Q01DX010 (sc), vehicle: suspension in saline): 69 % of control

CN=C(N)N/N=C(\C)c1ccc2c(c1)Cc1ccccc1-2
T/C [3]: 116 % of control | T/C [4]: 91 % of control | T/C [5]: 46 % of control | T/C [6]: 81 % of control

CC(=O)C(O)N1C(=O)C=CC1=O (stereo not drawn)
T/C (dose: 2.5 mg/kg/injection, schedule: Q01DX010 (sc), vehicle: saline): 123 % of control | T/C (dose: 5.0 mg/kg/injection, schedule: Q01DX010 (sc), vehicle: saline): 107 % of control | T/C (dose: 10.0 mg/kg/injection, schedule: Q01DX010 (sc), vehicle: saline): 52 % of control | T/C (dose: 20.0 mg/kg/injection, schedule: Q01DX010 (sc), vehicle: saline): 30 % of control

CCCCCC1c2cc(O)ccc2OC1N1CCOCC1 (stereo not drawn)
T/C [7]: 29 % of control | T/C [3]: 34 % of control | T/C [6]: 57 % of control | T/C (dose: 2400.0 mg/kg/injection, schedule: Q04DX004 (sc), vehicle: saline with Tween-80): 15 % of control

COc1ccc2c(NCCCCCCNc3c4ccccc4nc4cc(OC)ccc34)c3ccccc3nc2c1
T/C (dose: 0.62 mg/kg/injection, schedule: Q01DX010 (sc), vehicle: lactic acid): 87 % of control | T/C (dose: 1.25 mg/kg/injection, schedule: Q01DX010 (sc), vehicle: lactic acid): 73 % of control | T/C (dose: 2.5 mg/kg/injection, schedule: Q01DX010 (sc), vehicle: lactic acid): 71 % of control | T/C (dose: 30.0 mg/kg/injection, schedule: Q01DX010 (sc), vehicle: lactic acid): 71 % of control

c1csc(C[N+]23CN4CN(CN(C4)C2)C3)c1
T/C (dose: 100.0 mg/kg/injection, schedule: Q04DX004 (sc), vehicle: saline): 76 % of control | T/C (dose: 200.0 mg/kg/injection, schedule: Q04DX004 (sc), vehicle: saline): 97 % of control | T/C (dose: 400.0 mg/kg/injection, schedule: Q04DX004 (sc), vehicle: saline): 61 % of control

c1cnc2ncncc2n1
T/C (dose: 25.0 mg/kg/injection, schedule: Q01DX010 (sc), vehicle: saline with Tween-80): 62 % of control | T/C [8]: 70 % of control | T/C [9]: 28 % of control

CC(C)=CC(=O)OC1C2C(C)=CC(=O)C(O)C2(C)C2C3(O)OCC24C(CC(=O)OC14)C(C)C3O (stereo not drawn)
T/C (dose: 1.25 mg/kg/injection, schedule: Q04DX004 (sc), vehicle: distilled water + Tween-80): 67 % of control and 76 % of control | T/C (dose: 1.25 mg/kg/injection, schedule: Q04DX004 (sc), vehicle: saline with Tween-80): 70 % of control | T/C (dose: 5.0 mg/kg/injection, schedule: Q04DX004 (sc), vehicle: saline with Tween-80): 44 % of control

C1CCC2OCCOCCOC3CCCCC3OCCOCCOC2C1 (stereo not drawn)
T/C (dose: 37.5 mg/kg/injection, schedule: Q04DX004 (sc), vehicle: Klucel (hydroxypropylcellulose) (HPC)): 89 % of control | T/C [10]: 89 % of control

O=C(O)C1CC(c2ccccc2)=NN1c1ccccc1 (stereo not drawn)
T/C (dose: 75.0 mg/kg/injection, schedule: Q04DX004 (sc), vehicle: water): 76 % of control | T/C [11]: 79 % of control | T/C [12]: 74 % of control

O=C1C2(Cl)C3(Cl)C4(Cl)C(Cl)(Cl)C5(Cl)[C@]3(Cl)C1(Cl)[C@]5(Cl)C24Cl (stereo partly drawn)
T/C [10]: 60 % of control

BrC[P+](CBr)(CBr)CBr
T/C [1]: 86 % of control | T/C [2]: 57 % of control | T/C (dose: 200.0 mg/kg/injection, schedule: Q04DX004 (sc), vehicle: saline with Tween-80): 82 % of control | T/C (dose: 400.0 mg/kg/injection, schedule: Q04DX004 (sc), vehicle: saline with Tween-80): 103 % of control

CC1(C)OC2C(COC(=O)c3ccc([N+](=O)[O-])cc3)OC(NC(=O)N(CCCl)N=O)C2O1 (stereo not drawn)
T/C [3]: 38 % of control | T/C [4]: 26 % of control | T/C [5]: 70 % of control

CN(C(=S)S(=O)(=O)C12CC3CC(CC(C3)C1)C2)c1ccccc1
T/C (dose: 12.5 mg/kg/injection, schedule: Q04DX004 (sc), vehicle: Klucel (hydroxypropylcellulose) (HPC)): 99 % of control | T/C (dose: 25.0 mg/kg/injection, schedule: Q04DX004 (sc), vehicle: Klucel (hydroxypropylcellulose) (HPC)): 113 % of control | T/C (dose: 400.0 mg/kg/injection, schedule: Q04DX004 (sc), vehicle: Klucel (hydroxypropylcellulose) (HPC)): 107 % of control and 123 % of control | T/C (dose: 800.0 mg/kg/injection, schedule: Q04DX004 (sc), vehicle: Klucel (hydroxypropylcellulose) (HPC)): 197 % of control

COc1ccc(OC)c(Cc2cnc3nc(N)nc(N)c3c2C)c1
T/C [11]: 116 % of control | T/C [12]: 54 % of control

Clc1cc(Cl)c(C[N+]23CN4CN(CN(C4)C2)C3)cc1Cl
T/C (dose: 37.5 mg/kg/injection, schedule: Q04DX004 (sc), vehicle: saline with Tween-80): 85 % of control | T/C [7]: 95 % of control | T/C [3]: 68 % of control

CC(C)[NH-].CC(C)[NH-].O.O.[Cl][Pt+2][Cl]
T/C (dose: 6.25 mg/kg/injection, schedule: Q01DX010 (sc), vehicle: dextrose): 77 % of control and 79 % of control | T/C (dose: 12.5 mg/kg/injection, schedule: Q01DX010 (sc), vehicle: dextrose): 7 % of control and 23 % of control

[I][Hg][CH2]C1OCCOC1[CH2][Hg][I] (stereo not drawn)
T/C (dose: 300.0 mg/kg/injection, schedule: Q04DX004 (sc), vehicle: Klucel (hydroxypropylcellulose) (HPC)): 81 % of control | T/C (dose: 600.0 mg/kg/injection, schedule: Q04DX004 (sc), vehicle: Klucel (hydroxypropylcellulose) (HPC)): 104 % of control | T/C (dose: 1200.0 mg/kg/injection, schedule: Q04DX004 (sc), vehicle: Klucel (hydroxypropylcellulose) (HPC)): 80 % of control | T/C (dose: 2400.0 mg/kg/injection, schedule: Q04DX004 (sc), vehicle: Klucel (hydroxypropylcellulose) (HPC)): 73 % of control

C/C=C(\C)c1cc(=O)c2c(C)cc3c(c2o1)C(=O)c1c(O)c(C2CC(C)(N(C)C)C(OC(C)=O)C(C)O2)cc(C2CC(N(C)C)C(O)C(C)O2)c1C3=O (stereo not drawn)
T/C (dose: 2.5 mg/kg/injection, schedule: Q04DX004 (sc), vehicle: saline): 102 % of control | T/C (dose: 5.0 mg/kg/injection, schedule: Q04DX004 (sc), vehicle: saline): 93 % of control | T/C (dose: 20.0 mg/kg/injection, schedule: Q04DX004 (sc), vehicle: saline): 37 % of control and 39 % of control

O=CC=O
T/C [8]: 64 % of control | T/C [9]: 66 % of control | T/C (dose: 200.0 mg/kg/injection, schedule: Q01DX010 (sc), vehicle: saline with Tween-80): 38 % of control
